Laboratory results as given in patent US11969476B2, “Antibody molecule-drug conjugates and uses thereof” (priority 2020, dated 2024).
Converted amounts (≈) assume the structure as drawn. Ends that are not written are not given here.

What was measured:
P. aeruginosa BAA-2113 = tested on: P. aeruginosa BAA-2113; set-up: key: R = Resistant; S = Suspectible; I = Intermediate; NT = Note Tested; details: strain BAA-2113, isolated from human sputum; cited from earlier work
P. aeruginosa BAA-2114 = tested on: P. aeruginosa BAA-2114; set-up: key: R = Resistant; S = Suspectible; I = Intermediate; NT = Note Tested; details: strain BAA-2114, isolated from human sputum; cited from earlier work
P. aeruginosa BAA-2109 = tested on: P. aeruginosa BAA-2109; set-up: key: R = Resistant; S = Suspectible; I = Intermediate; NT = Note Tested; details: strain BAA-2109, isolated from human sputum; cited from earlier work
P. aeruginosa BAA-2110 = tested on: P. aeruginosa BAA-2110; set-up: key: R = Resistant; S = Suspectible; I = Intermediate; NT = Note Tested; details: strain BAA-2110, isolated from human sputum; cited from earlier work
P. aeruginosa BAA-2108 = tested on: P. aeruginosa BAA-2108; set-up: key: R = Resistant; S = Suspectible; I = Intermediate; NT = Note Tested; details: strain BAA-2108, isolated from human sputum; cited from earlier work
P. aeruginosa BAA-2111 = tested on: P. aeruginosa BAA-2111; set-up: key: R = Resistant; S = Suspectible; I = Intermediate; NT = Note Tested; details: strain BAA-2111, isolated from human sputum; cited from earlier work
P. aeruginosa BAA-2112 = tested on: P. aeruginosa BAA-2112; set-up: key: R = Resistant; S = Suspectible; I = Intermediate; NT = Note Tested; details: strain BAA-2112, isolated from human sputum; cited from earlier work
in vitro = details: human, Cytotox CC50
[1] = Cytotoxicity to mammalian cells; details: human, 293T cells
[2] = LC-MS; 10% human serum (FIG. 8)
Description: Assessment of Serum Stability. […] Twenty μl of each test article was placed in a 2.0 ml round bottom microfuge tube. […] Assay tubes were placed at 37° C. in a rotating rack between time-points. […] Supernatant from each tube was collected and frozen at −20° C. for analysis. Samples were harvested and processed at various time-points up to 6 hours.

293T = experiment: Cytotoxicity to mammalian cells

Row | Compound | antibiotic resistance phenotype (P. aeruginosa BAA-2113) | antibiotic resistance phenotype (P. aeruginosa BAA-2114) | antibiotic resistance phenotype (P. aeruginosa BAA-2109) | antibiotic resistance phenotype (P. aeruginosa BAA-2110) | antibiotic resistance phenotype (P. aeruginosa BAA-2108) | antibiotic resistance phenotype (P. aeruginosa BAA-2111) | antibiotic resistance phenotype (P. aeruginosa BAA-2112) | CC50 (in vitro) | CC50 [1] | CC50 ([1]; Cytotox CC50, concentration at which 50% cytotoxicity of mammalian cells is observed) | half-life in the presence of serum [2] | cytotoxicity to 293T relative to the MIC (293T)
1 | NCC[C@H](O)C(=O)N[C@@H]1C[C@H](N)[C@@H](O[C@H]2O[C@H](CN)[C@@H](O)[C@H](O)[C@H]2O)[C@H](O)[C@H]1O[C@H]1O[C@H](CO)[C@@H](O)[C@H](N)[C@H]1O [Amikacin] | S | S | S | S | S | S | S | – | – | – | – | –
2 | CC1(C)S[C@@H]2[C@H](NC(=O)[C@H](N)c3ccccc3)C(=O)N2[C@H]1C(=O)O [Ampicillin] | R | R | R | R | R | R | R | – | – | – | – | –
3 | CC(=O)OCC1=C(C(=O)O)N2C(=O)[C@@H](NC(=O)Cc3cccs3)[C@H]2SC1 [Cefalotin] | R | R | R | – | R | R | R | – | – | – | – | –
4 | Cc1nnc(SCC2=C(C(=O)O)N3C(=O)[C@@H](NC(=O)Cn4cnnn4)[C@H]3SC2)s1 [Cefazolin] | R | R | R | R | – | R | R | – | – | – | – | –
5 | CO/N=C(\C(=O)N[C@@H]1C(=O)N2C(C(=O)O)=C(COC(C)=O)CS[C@H]12)c1csc(N)n1 [Cefotaxime] | R | R | R | R | R | R | R | – | – | – | – | –
6 | CO[C@@]1(NC(=O)Cc2cccs2)C(=O)N2C(C(=O)O)=C(COC(N)=O)CS[C@@H]21 [Cefoxitin] | R | R | R | R | R | R | R | – | – | – | – | –
7 | CO/N=C(\C(=O)N[C@@H]1C(=O)N2C(C(=O)O)=C(CSc3nc(=O)c(=O)[nH]n3C)CS[C@H]12)c1csc(N)n1 [Ceftriaxone] | R | R | R | – | – | R | R | – | – | – | – | –
8 | CO/N=C(\C(=O)N[C@@H]1C(=O)N2C(C(=O)OC(C)OC(C)=O)=C(COC(N)=O)CS[C@H]12)c1ccco1 (stereo partly drawn) [Cefuroxime Axetil] | R | R | R | – | R | R | R | – | – | – | – | –
9 | CO/N=C(\C(=O)N[C@@H]1C(=O)N2C(C(=O)O)=C(COC(N)=O)CS[C@H]12)c1ccco1 [Cefuroxime] | R | R | R | – | R | R | R | – | – | – | – | –
10 | O=C(O)c1cn(C2CC2)c2cc(N3CCNCC3)c(F)cc2c1=O [Ciprofloxacin] | S | R | S | S | S | S | S | – | – | – | – | –
11 | CC[C@H](C)[C@H](NC(=O)[C@H](CCCCN)NC(=O)[C@H](CCC(=O)O)NC(=O)[C@H](CCCCN)NC(=O)[C@H](CO)NC(=O)[C@H](CCCCN)NC(=O)[C@H](CCCNC(=N)N)NC(=O)[C@H](Cc1ccccc1)NC(=O)[C@H](Cc1ccccc1)NC(=O)[C@H](CC(=O)O)NC(=O)CNC(=O)[C@H](CC(C)C)NC(=O)[C@H](CC(C)C)NC(=O)CNC(=O)CNC(=O)CN)C(=O)NCC(=O)N[C@@H](CCCCN)C(=O)N[C@@H](CCC(=O)O)C(=O)N[C@@H](Cc1ccccc1)C(=O)N[C@@H](CCCCN)C(=O)N[C@@H](CCCNC(=N)N)C(=O)N[C@H](C(=O)N[C@H](C(=O)N[C@@H](CCC(N)=O)C(=O)N[C@@H](CCCNC(=N)N)C(=O)N[C@H](C(=O)N[C@@H](CCCCN)C(=O)N[C@@H](CC(=O)O)C(=O)N[C@@H](Cc1ccccc1)C(=O)N[C@@H](CC(C)C)C(=O)N[C@@H](CCCNC(=N)N)C(=O)N[C@@H](CC(N)=O)C(=O)N[C@@H](CC(C)C)C(=O)N[C@H](C(=O)N1CCC[C@H]1C(=O)N[C@@H](CCCNC(=N)N)C(=O)N[C@H](C(=O)N[C@@H](CCC(=O)O)C(=O)N[C@@H](CO)C(=O)O)[C@@H](C)O)C(C)C)[C@@H](C)CC)C(C)C)[C@@H](C)CC [Peptide P265] | – | – | – | – | – | – | – | 90 µg/mL (≈ 19.3 µM) | – | – | – | –
12 | CN(C)c1cc(NC(=O)CNC(C)(C)C)c(O)c2c1C[C@H]1C[C@H]3[C@H](N(C)C)C(O)=C(C(N)=O)C(=O)[C@@]3(O)C(O)=C1C2=O [Tigecycline] | R | R | R | R | R | R | R | – | – | – | – | –
13 | NC[C@H]1O[C@H](O[C@H]2[C@H](O)[C@@H](O[C@H]3O[C@H](CO)[C@@H](O)[C@H](N)[C@H]3O)[C@H](N)C[C@@H]2N)[C@H](N)C[C@@H]1O [Tobramycin] | S | S | S | S | – | S | S | – | – | – | – | –
14 | Amoxicillin/Clavulanic Acid | R | R | R | – | R | R | R | – | – | – | – | –
15 | GGGGIGKFLKKAKKFGKAFVKILKK [Peptide P261] | – | – | – | – | – | – | – | – | 250 µg/mL | – | – | –
16 | GGGGLRKRLRKFRNKIKEKLKKIGQKIQGLLPKLA [Peptide P271] | – | – | – | – | – | – | – | – | – | 250 µg/mL | – | –
17 | GGGGRFKRFRKKFKKLFKKLSPVIPLLHLG [Peptide P267] | – | – | – | – | – | – | – | 70 µg/mL | – | – | – | –
18 | GGGKFFRKLKKSVKKRAKEFFKKPRVIGVSIPF [Peptide P297] | – | – | – | – | – | – | – | – | 780 µg/mL | – | ~20 min | ~200 fold
19 | GGGKRFKKFFKKLKNSVKKRAKKFFKKPRVIGVSIPF [Peptide P296] | – | – | – | – | – | – | – | – | 400 µg/mL | – | – | –
20 | GGGRGLRRLGRKIAHGVKKYGPTVLRIIKKYG [Peptide P294] | – | – | – | – | – | – | – | 120 µg/mL | – | – | – | –
21 | Gentamicin | S | S | S | I | I | S | S | – | – | – | – | –
22 | Piperacillin/Tazobactam | S | S | S | – | – | S | S | – | – | – | – | –
23 | Trimethoprim/Sulfamethoxazole | R | R | R | R | R | R | R | – | – | – | – | –
